Measurements as given in patent US11040035B2, “3-oxo-2,6-diphenyl-2,3-dihydropyridazine-4-carboxamides” (BAYER PHARMA AKTIENGESELLSCHAFT, priority 2016, dated 2021).
Like-named read-outs stand apart in the source and are kept apart here.

Experiments:
[1] = target: T1, AHR (Homo sapiens, UniProt P35869); assay: In vitro assay 2: agonism in human cell line (transactivation assay)
T1 sequence (P35869 11-848): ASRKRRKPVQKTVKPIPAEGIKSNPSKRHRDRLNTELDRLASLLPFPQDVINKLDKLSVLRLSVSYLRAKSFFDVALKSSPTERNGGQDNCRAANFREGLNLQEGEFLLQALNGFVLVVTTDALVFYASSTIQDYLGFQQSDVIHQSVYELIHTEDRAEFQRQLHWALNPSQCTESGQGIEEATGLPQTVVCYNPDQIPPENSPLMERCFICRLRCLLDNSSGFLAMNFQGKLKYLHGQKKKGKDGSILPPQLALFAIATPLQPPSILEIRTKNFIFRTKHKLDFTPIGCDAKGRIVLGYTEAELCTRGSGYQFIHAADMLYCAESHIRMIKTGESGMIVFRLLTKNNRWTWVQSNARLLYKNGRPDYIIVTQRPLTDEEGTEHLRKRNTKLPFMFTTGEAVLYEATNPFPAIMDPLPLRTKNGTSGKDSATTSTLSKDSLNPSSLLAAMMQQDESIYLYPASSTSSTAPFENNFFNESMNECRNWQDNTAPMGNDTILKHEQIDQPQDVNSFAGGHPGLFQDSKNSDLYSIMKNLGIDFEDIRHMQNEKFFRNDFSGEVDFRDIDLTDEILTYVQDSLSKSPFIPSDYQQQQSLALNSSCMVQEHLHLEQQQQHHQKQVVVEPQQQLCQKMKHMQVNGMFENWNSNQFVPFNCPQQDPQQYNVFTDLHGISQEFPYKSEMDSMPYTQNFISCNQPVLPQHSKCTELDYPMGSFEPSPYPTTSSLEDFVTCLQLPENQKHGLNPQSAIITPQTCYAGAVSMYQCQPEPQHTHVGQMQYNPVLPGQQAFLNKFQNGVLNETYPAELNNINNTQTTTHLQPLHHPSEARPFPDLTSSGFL

[2] = tested on: AHR-regulated gene CYP1A1; assay: In vitro assay 3: AHR-regulated CYP1A1 expression in human cell line (U937, qPCR)
[3] = target: T1, AHR; assay: In vitro assay 1: antagonism in human cell line (transactivation assay, kynurenic acid prestimulated); conditions: Assay 1: AHR-luc Hum Antagonism IC50 [M], 150 μM kynurenic acid, 20 hours, firefly luciferase
[4] = Assay 2: AHR-luc Hum Agonism IC50 [M], no kynurenic acid, 20 hours, firefly luciferase
[5] = Homo sapiens, U-937, 6 h, read-out: Assay 3: Hum CYP1A1 Antagonism IC50 [M], U937 cells, 200 μM KA, 6 hours, qPCR
[6] = read-out: Assay 3: Hum CYP1A1 Antagonism IC50, U937 cells, 200 μM KA, 6 hours, qPCR
[7] = read-out: Assay 2: AHR-luc Hum Agonism IC50, no kynurenic acid, 20 hours, firefly luciferase

Structure (SMILES)	IC50 [1, 4] [M]	IC50 [2, 5] [M]	IC50 [3] [M]	IC50 [2, 6] [M]	IC50 [1, 7] [M]
O=C(NC(CO)C1CCOC1)c1cc(-c2ccc(OC(F)F)cc2)nn(-c2cccc(F)c2)c1=O (single isomer, unassigned) [Example 145, 6-[4-(Difluoromethoxy)phenyl]-2-(3-fluorophenyl)-N-{(2-hydroxy-1-tetrahydrofuran-3-yl)ethyl}-3-oxo-2,3-dihydropyridazine-4-carboxamide]	> 2e-05	3.89e-08	9.33e-08		
O=C(NC(CO)C(F)(F)F)c1cc(-c2ccc(OC(F)(F)F)cc2)nn(-c2cccc(F)c2)c1=O (single isomer, unassigned) [Example 170, 2-(3-Fluorophenyl)-3-oxo-N-(1,1,1-trifluoro-3-hydroxypropan-2-yl)-6-[4-(trifluoromethoxy)phenyl]-2,3-dihydropyridazine-4-carboxamide]	> 2e-05	1.42e-08	1.19e-08		
O=C(NC(CO)C1CCOC1)c1cc(-c2ccc(OC(F)(F)F)cc2)nn(-c2cccc(F)c2)c1=O (single isomer, unassigned) [Example 175, 2-(3-Fluorophenyl)-N-[2-hydroxy-1-(tetrahydrofuran-3-yl)ethyl]-3-oxo-6-[4-(trifluoromethoxy)phenyl]-2,3-dihydropyridazine-4-carboxamide]	> 2e-05		2.91e-08	3.76e-08	
O=C(NC(CO)C1CCOC1)c1cc(-c2ccc(OC(F)(F)F)cc2)nn(-c2cccc(F)c2)c1=O (single isomer, unassigned) [Example 176, 2-(3-Fluorophenyl)-N-[2-hydroxy-1-(tetrahydrofuran-3-yl)ethyl]-3-oxo-6-[4-(trifluoromethoxy)phenyl]-2,3-dihydropyridazine-4-carboxamide]			1.71e-07	1.02e-07	> 2e-05
O=C(NC(CO)C1CCOC1)c1cc(-c2ccc(OC(F)(F)F)cc2)nn(-c2cccc(F)c2)c1=O (single isomer, unassigned) [Example 177, 2-(3-Fluorophenyl)-N-[2-hydroxy-1-(tetrahydrofuran-3-yl)ethyl]-3-oxo-6-[4-(trifluoromethoxy)phenyl]-2,3-dihydropyridazine-4-carboxamide]			3.19e-07	6e-07	> 2e-05
O=C(NC(CO)C1CCOC1)c1cc(-c2ccc(OC(F)(F)F)cc2)nn(-c2cccc(F)c2)c1=O (single isomer, unassigned) [Example 178, 2-(3-Fluorophenyl)-N-[2-hydroxy-1-(tetrahydrofuran-3-yl)ethyl]-3-oxo-6-[4-(trifluoromethoxy)phenyl]-2,3-dihydropyridazine-4-carboxamide]			1.27e-07	1.13e-07	> 2e-05
CC(O)C(C)NC(=O)c1cc(-c2ccc(OC(F)(F)F)cc2)nn(-c2cccc(F)c2)c1=O (single isomer, unassigned) [Example 181, 2-(3-Fluorophenyl)-N-(3-hydroxybutan-2-yl)-3-oxo-6-[4-(trifluoromethoxy)phenyl]-2,3-dihydropyridazine-4-carboxamide]		2.12e-07	8.02e-08		> 2e-05
O=C(NCC(O)C(F)(F)F)c1cc(-c2ccc(OC(F)(F)F)cc2)nn(-c2cccc(F)c2)c1=O (single isomer, unassigned) [Example 183, 2-(3-Fluorophenyl)-3-oxo-N-(3,3,3-trifluoro-2-hydroxypropyl)-6-[4-(trifluoromethoxy)phenyl]-2,3-dihydropyridazine-4-carboxamide]	> 2e-05		3.78e-08	4.14e-08	
O=C(NCC(O)C(F)(F)F)c1cc(-c2ccc(OC(F)(F)F)cc2)nn(-c2cccc(F)c2)c1=O (single isomer, unassigned) [Example 184, 2-(3-Fluorophenyl)-3-oxo-N-(3,3,3-trifluoro-2-hydroxypropyl)-6-[4-(trifluoromethoxy)phenyl]-2,3-dihydropyridazine-4-carboxamide]			1.34e-07	1.29e-07	> 2e-05
CC(O)C(NC(=O)c1cc(-c2ccc(Cl)cc2)nn(-c2cccc(F)c2)c1=O)C(F)(F)F (single isomer, unassigned) [Example 198, 6-(4-chlorophenyl)-2-(3-fluorophenyl)-3-oxo-N-(1,1,1-trifluoro-3-hydroxybutan-2-yl)-2,3-dihydropyridazine-4-carboxamide]	> 2e-05	1.49e-08	1.34e-08		
CC(NC(=O)c1cc(-c2ccc(C(F)(F)F)cc2)nn(-c2cccc(F)c2)c1=O)C(O)C(F)(F)F (single isomer, unassigned) [Example 270, Isomer no. 3 of 2-(3-fluorophenyl)-3-oxo-N-(4,4,4-trifluoro-3-hydroxybutan-2-yl)-6-[4-(trifluoromethyl)phenyl]-2,3-dihydropyridazine-4-carboxamide]	> 2e-05		6.12e-09	5.44e-09	
CC(NC(=O)c1cc(-c2ccc(C(F)(F)F)cc2)nn(-c2cccc(F)c2)c1=O)C(O)C(F)(F)F (single isomer, unassigned) [Example 271, Isomer no. 4 of 2-(3-fluorophenyl)-3-oxo-N-(4,4,4-trifluoro-3-hydroxybutan-2-yl)-6-[4-(trifluoromethyl)phenyl]-2,3-dihydropyridazine-4-carboxamide]	> 2e-05		2.06e-08	3.01e-08	
O=C(N[C@@H]1CCCC(F)(F)[C@H]1O)c1cc(-c2ccc(Cl)cc2)nn(-c2cccc(F)c2)c1=O (single isomer, unassigned) [Example 275, 6-(4-Chlorophenyl)-N-[(trans)-3,3-difluoro-2-hydroxycyclohexyl]-2-(3-fluorophenyl)-3-oxo-2,3-dihydropyridazine-4-carboxamide]	> 2e-05	3.39e-08	1.81e-08		
O=C(NC(CO)C1CCOC1)c1cc(-c2ccc(Cl)c(F)c2)nn(-c2cccc(F)c2)c1=O (single isomer, unassigned) [Example 293, 6-(4-Chloro-3-fluorophenyl)-2-(3-fluorophenyl)-N-[2-hydroxy-1-(tetrahydrofuran-3-yl)ethyl]-3-oxo-2,3-dihydropyridazine-4-carboxamide]		6.98e-08	4.92e-08		> 2e-05
C[C@@H](CO)CNC(=O)c1cc(-c2ccc(C(F)(F)F)cc2)nn(-c2cccc(F)c2)c1=O (single isomer, unassigned) [Example 329]	> 2e-05	3.22e-08	2.8e-08		
O=C(N[C@H]1CC[C@@H]1O)c1cc(-c2ccc(Cl)cc2)nn(-c2cccc(F)c2)c1=O (single isomer, unassigned) [Example 336, (+)-6-(4-chlorophenyl)-2-(3-fluorophenyl)-N-(trans-2-hydroxycyclobutyl)-3-oxo-2,3-dihydropyridazine-4-carboxamide]		2e-06	4.02e-08		> 2e-05
O=C(N[C@@H]1COC[C@@H]1O)c1cc(-c2ccc(C(F)(F)F)cc2)nn(-c2cccc(F)c2)c1=O (single isomer, unassigned) [Example 344, (+)-2-(3-fluorophenyl)-N-(cis-4-hydroxytetrahydrofuran-3-yl)-3-oxo-6-[4-(trifluoromethyl)phenyl]-2,3-dihydropyridazine-4-carboxamide]	> 2e-05		5.84e-09	1.85e-08	
O=C(N[C@@H]1COC[C@@H]1O)c1cc(-c2ccc(C(F)(F)F)cc2)nn(-c2cccc(F)c2)c1=O (single isomer, unassigned) [Example 345, (−)-2-(3-fluorophenyl)-N-(cis-4-hydroxytetrahydrofuran-3-yl)-3-oxo-6-[4-(trifluoromethyl)phenyl]-2,3-dihydropyridazine-4-carboxamide]			1.58e-08	5.4e-08	> 2e-05
CC(CCO)NC(=O)c1cc(-c2ccc(C(F)(F)F)cc2)nn(-c2cccc(F)c2)c1=O (single isomer, unassigned; (+)) [Example 254, (+)-2-(3-Fluorophenyl)-N-(4-hydroxybutan-2-yl)-3-oxo-6-[4-(trifluoromethyl)phenyl]-2,3-dihydropyridazine-4-carboxamide]	> 2e-05		1.1e-08	3.01e-08	
